Data reported in patent US10538487B2, “Sulfonylureas and related compounds and use of same” (priority 2015, dated 2020).

Tests used:
NLRP3 inflammasome [1] = target: NLRP3 inflammasome (Mus musculus, UniProt Q8R4B8); assay: Inhibition of IL-1β release, NLRP3 inflammasome activation assay in BMDM; type: cell-based; conditions: inhibition of IL-1β release, class symbols, read-out: Avg. IL-1β IC50 Murine BMDM
How it was run: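 C57BL/6 mouse BMDM seeded at 1×10^5/ml were primed with E. coli K12 LPS for 3 h, then given compound in serum-free medium 30 min before NLRP3 stimulation (ATP, nigericin, LeuLeu-OMe or MSU). Released IL-1β in supernatants was measured by ELISA, and cell death by LDH release relative to full lysis.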

NLRP3 inflammasome [2] = target: T1, NLRP3 inflammasome (Homo sapiens, UniProt Q96P20); assay: Inhibition of IL-18 release, NLRP3 inflammasome activation assay in HMDM; type: cell-based; conditions: class symbols
Description: The following assays can be used to determine inhibitory activity of test compounds on the NLRP3 inflammasome using common stimuli such as adenosine triphosphate, nigericin, LeuLeu-OMe or monosodium urate crystals (MSU).
To generate HMDM, human monocytes are isolated from buffy coat blood using Ficoll-Plaque Plus (GE Healthcare) and density centrifugation. CD14^+ cell selection is performed using MACS magnetic beads (Miltenyl Biotec).
HMDM are seeded at 1×10^5/ml. […] Medium is removed and replaced with serum free medium (SFM) containing test compound 30 min prior to NLRP3 stimulation. […] ATP can be sourced from Sigma Aldrich, nigericin and MSU from Invivogen and LeuLeu-Ome from Chem-Impex International.
For ELISA and cell death assays cells are seeded in 96 well plates. Supernatants are removed and analysed using ELISA kits according to the manufacturer's instructions (DuoSet® R&D Systems, ReadySetGo!® eBioscience, BD OptEIA™, or Perkin Elmer AlphaLISA®). Cell death is assessed by measurement of LDH release relative to a 100% cell lysis control using the CytoTox96® non-radioactive cytotoxicity assay (Promega).

NLRP3 inflammasome [3] = target: T1, NLRP3 inflammasome; assay: Inhibition of IL-1β release, NLRP3 inflammasome activation assay in HMDM; type: cell-based; conditions: inhibition of IL-1β release, class symbols, read-out: Avg. IL-1β IC50 HMDM
How it was run: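 Primary human monocyte-derived macrophages from CD14+ buffy-coat monocytes, seeded at 1×10^5/ml. Compound added in serum-free medium 30 min before NLRP3 stimulation (ATP, nigericin, LeuLeu-OMe or MSU). Cytokine in supernatants measured by ELISA or AlphaLISA; cell death by LDH release relative to full lysis.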

[4] = Compound levels in blood plasma of mice after oral gavage (LC-MS/MS); type: in vivo; conditions: mouse, 2 hour timepoint after oral gavage at 20 mg/Kg
Description: A series of 10-fold dilutions of the 100,000 ng/mL stock solution with 10 mM NH4HCO3 gave concentrations of 10,000, 1,000, 100 and 10 ng/mL. The 100,000 ng/mL stock solution was diluted to 3:7 with 10 mM NH4HCO3 to give a concentration of 30,000 ng/mL and a series of 10-fold dilutions gave concentrations of 3,000, 300, 30 and 3 ng/mL.
20 μL of test compound-containing solution and 160 μL precipitation solution were added to 20 μL of mouse plasma in a low binding Eppendorf tube. The samples were vortexed, allowed to stand at 4° C. for 10 mins and centrifuged at 14,000×g for 8 min. 150 μL of the supernatant was transferred to an HPLC vial insert. The samples were stored at 4° C. until analysis.
Dosing: Oral gavage at 20 mg/kg
(§1) Prepare stock compounds for dosing at 4 mg/ml in sterile PBS. Mice were weighed and dosed by oral gavage at 20 mg/kg for each compound. […]
The samples were analysed on an AB Sciex 4000QTrap MS with 2 Shimadzu Nexera LC-30AD Solvent Delivery Units, Shimadzu Nexera SIL-30AC Auto-Sampler, Shimadzu Prominence DGU-20A5 Degasser, Shimadzu Prominence CBM-20A System Controller and Shimadzu Prominence CTO-20A Column Oven. […] The peak areas from the SRM data for carbutamide and test compound were analysed using the AB Sciex's Analyst software using the Quantitation Wizard.

in vivo = conditions: mouse, brain, mice, oral gavage at 20 mg/kg
Description: The sample solutions prepared for the plasma standard curve were used for the brain homogenate standard curve.
The mouse brain homogenate from the saline control was thawed and vortexed for 3 min or until homogenous, sonicated for 1 min. When the foam settled, 50 μL of mouse brain homogenate was transferred into an Eppendorf tube, followed by 50 μL of test compound in 10 mM NH4HCO3, 150 μL of H2O and 500 μL of ice cold precipitation solution with vortexing after every addition. The standards were allowed to stand at 4° C. for 10 mins and then centrifuged at 14,000×g for 8 min. 200 μL of the supernatant was transferred to HPLC vial insert ensuring that no air bubbles were present and the samples stored at 4° C. until analysis.
Dosing: Oral gavage at 20 mg/kg
as §1
The samples were analysed on an AB Sciex 4000QTrap MS with 2 Shimadzu Nexera LC-30AD Solvent Delivery Units, Shimadzu Nexera SIL-30AC Auto-Sampler, Shimadzu Prominence DGU-20A5 Degasser, Shimadzu Prominence CBM-20A System Controller and Shimadzu Prominence CTO-20A Column Oven. […] The peak areas from the SRM data for carbutamide and test compound were analysed using the AB Sciex's Analyst software using the Quantitation Wizard. […]

[5] = Half life of CRID3 in mouse (stated in description); type: in vivo

T1 sequence (Q96P20 whole entry): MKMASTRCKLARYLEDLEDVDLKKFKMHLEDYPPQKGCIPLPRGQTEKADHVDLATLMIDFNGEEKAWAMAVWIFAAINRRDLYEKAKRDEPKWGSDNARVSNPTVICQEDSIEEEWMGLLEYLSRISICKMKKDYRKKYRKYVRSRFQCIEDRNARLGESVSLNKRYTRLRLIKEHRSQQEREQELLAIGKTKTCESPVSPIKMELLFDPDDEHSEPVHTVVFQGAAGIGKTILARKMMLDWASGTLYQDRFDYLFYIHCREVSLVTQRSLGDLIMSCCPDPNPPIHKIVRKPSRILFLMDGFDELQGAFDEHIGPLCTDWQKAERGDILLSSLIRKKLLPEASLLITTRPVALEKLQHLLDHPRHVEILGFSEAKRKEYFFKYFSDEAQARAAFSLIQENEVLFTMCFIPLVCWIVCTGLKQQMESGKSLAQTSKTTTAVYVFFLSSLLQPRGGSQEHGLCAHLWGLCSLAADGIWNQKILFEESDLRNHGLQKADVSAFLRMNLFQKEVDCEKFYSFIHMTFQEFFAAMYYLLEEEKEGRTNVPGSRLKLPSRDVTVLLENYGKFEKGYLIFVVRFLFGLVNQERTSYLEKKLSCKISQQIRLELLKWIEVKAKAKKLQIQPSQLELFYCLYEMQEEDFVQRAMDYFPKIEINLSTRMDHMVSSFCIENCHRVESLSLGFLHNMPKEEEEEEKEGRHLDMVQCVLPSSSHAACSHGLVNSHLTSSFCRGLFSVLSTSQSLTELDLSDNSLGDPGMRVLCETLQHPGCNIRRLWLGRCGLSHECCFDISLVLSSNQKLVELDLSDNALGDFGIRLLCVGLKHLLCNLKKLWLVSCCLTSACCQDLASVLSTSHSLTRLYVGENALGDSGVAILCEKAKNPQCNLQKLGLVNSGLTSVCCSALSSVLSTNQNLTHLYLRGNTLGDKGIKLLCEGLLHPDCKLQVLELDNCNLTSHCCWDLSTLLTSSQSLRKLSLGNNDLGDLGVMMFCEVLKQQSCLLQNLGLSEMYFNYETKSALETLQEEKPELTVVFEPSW
Chain of NLRP3 inflammasome (Mus musculus, UniProt Q8R4B8) (Q8R4B8 whole entry): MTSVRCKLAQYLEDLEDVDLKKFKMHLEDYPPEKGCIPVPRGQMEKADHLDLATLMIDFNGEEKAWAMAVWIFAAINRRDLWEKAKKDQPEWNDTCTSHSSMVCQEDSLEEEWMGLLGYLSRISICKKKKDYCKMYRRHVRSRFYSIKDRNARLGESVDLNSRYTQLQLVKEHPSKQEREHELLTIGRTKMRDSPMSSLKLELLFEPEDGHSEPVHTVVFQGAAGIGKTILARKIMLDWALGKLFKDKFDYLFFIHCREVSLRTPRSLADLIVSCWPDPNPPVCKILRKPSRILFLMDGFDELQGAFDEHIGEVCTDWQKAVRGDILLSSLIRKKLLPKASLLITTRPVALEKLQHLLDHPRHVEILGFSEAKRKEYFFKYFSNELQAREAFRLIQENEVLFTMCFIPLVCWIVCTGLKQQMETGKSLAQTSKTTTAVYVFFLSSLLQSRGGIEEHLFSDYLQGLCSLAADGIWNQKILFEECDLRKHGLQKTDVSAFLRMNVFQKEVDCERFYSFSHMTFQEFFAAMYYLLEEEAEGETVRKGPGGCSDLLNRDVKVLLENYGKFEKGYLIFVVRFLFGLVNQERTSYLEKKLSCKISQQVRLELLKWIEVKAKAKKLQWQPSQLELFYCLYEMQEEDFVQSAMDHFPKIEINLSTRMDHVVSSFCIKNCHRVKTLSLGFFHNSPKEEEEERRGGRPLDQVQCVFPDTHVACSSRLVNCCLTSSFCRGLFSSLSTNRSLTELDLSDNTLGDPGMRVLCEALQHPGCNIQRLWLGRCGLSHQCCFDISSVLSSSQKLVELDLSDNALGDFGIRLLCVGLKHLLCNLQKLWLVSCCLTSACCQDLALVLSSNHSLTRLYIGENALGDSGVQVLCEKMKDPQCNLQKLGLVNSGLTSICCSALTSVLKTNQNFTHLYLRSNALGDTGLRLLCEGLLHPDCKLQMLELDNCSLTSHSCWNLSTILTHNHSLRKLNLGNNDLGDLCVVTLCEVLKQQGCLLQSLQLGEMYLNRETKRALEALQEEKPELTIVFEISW

SMILES	IC50 (NLRP3 inflammasome [2])	IC50 (NLRP3 inflammasome [3])	further results
CC(C)(O)c1cc(S(=O)(=O)NC(=O)Nc2c3c(cc4c2CCC4)CCC3)nn1-c1ccccc1 [N-((1,2,3,5,6,7-hexahydro-s-indacen-4-yl)carbamoyl)-5-(2-hydroxypropan-2-yl)-1-phenyl-1H-pyrazole-3-sulfonamide]	< 100 nM	< 100 nM	IC50 (NLRP3 inflammasome [1]): < 100 nM
CC(C)n1ccc(S(=O)(=O)NC(=O)Nc2c3c(cc4c2CCC4)CCC3)n1 [drawing 336]	–	–	concentration at 2 h [4]: 28200 ng/mL
CC(C)(O)c1coc(S(=O)(=O)NC(=O)Nc2c3c(cc4c2CCC4)CCC3)c1 [drawing 335]	–	–	concentration at 2 h [4]: 17500 ng/mL; concentration at 2 h (in vivo): 184 ng/g; Kp at 2 h (in vivo; read-out: Brain/Plasma Ratio): 0.0117
Cn1nc(S(=O)(=O)NC(=O)Nc2c3c(cc4c2CCC4)CCC3)cc1C(C)(C)O [N-((1,2,3,5,6,7-hexahydro-s-indacen-4-yl)carbamoyl)-5-(2-hydroxypropan-2-yl)-1-methyl-1H-pyrazole-3-sulfonamide]	< 100 nM	< 100 nM	IC50 (NLRP3 inflammasome [1]): < 100 nM
CC(C)(O)c1coc(S(=O)(=O)NC(=O)Nc2c3c(cc4c2CCC4)CCC3)c1 [CRID3]	–	–	half life [5]: 3.2 h
O=C(Nc1c2c(cc3c1CCC3)CCC2)NS(=O)(=O)c1cccs1 [N-((1,2,3,5,6,7-hexahydro-s-indacen-4-yl)carbamoyl)thiophene-2-sulfonamide]	< 100 nM	< 100 nM	–
CC(C)c1cccc(C(C)C)c1NC(=O)NS(=O)(=O)c1cc(C(C)(C)O)n(C)n1 [N-((2,6-diisopropylphenyl)carbamoyl)-5-(2-hydroxypropan-2-yl)-1-methyl-1H-pyrazole-3-sulfonamide]	< 100 nM	< 100 nM	–
